The values that follow come from PubChem BioAssay (NCI).

Holding throughout (test): inhibition of tumour cell growth, NCI panel, 48 h
Assay [1] relates to NCI/ADR-RES ovarian.
For assay [2], the system named is SK-MEL-5 melanoma.
For assay [3], the system named is BT-549 breast.
For assay [4], the system named is NCI-H522 lung.
Assay [5] concerns SNB-19 CNS.
Assay [6] has as its system HT29 colon.
In assay [7] the test system is SW-620 colon.
Assay [8] concerns NCI-H460 lung.
In assay [9] the test system is 786-0 renal.
For assay [10], the system named is A498 renal.
In assay [11] the test system is SK-MEL-2 melanoma.
For assay [12], the system named is MDA-N.
In assay [13] the test system is UO-31 renal.
For assay [14], the system named is SNB-75 CNS.
Assay [15] deals with MCF7 breast.
The test system of assay [16] is A549 NSCLC.
Assay [17] deals with SF-268 CNS.
In assay [18] the test system is UACC-62 melanoma.
Assay [19] relates to OVCAR-3 ovarian.
Assay [20] deals with MOLT-4 leukemia.

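96-well plates; 48 h exposure; 5 concentrations. Endpoints by linear interpolation between flanking doses. Not reached: highest tested concentration assigned. TGI: total growth inhibition.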 Some results are limits rather than exact numbers.

`COC(=O)/C(=N\NC(N)=O)C(C(=O)C(=O)Nc1ccccc1OC)c1nc2ccc([N+](=O)[O-])cc2[nH]c1=O` (configuration not stated): the TGI in assay [1], in assay [2], in [3], in [4], in assay [5] and in [6] was more than 100 µM in each case. The TGI in assay [7], in [8], in assay [9], in assay [10], in assay [11] and in assay [12] was more than 100 µM in each case. The TGI in assay [13], in assay [14], in assay [15], in [16], in assay [17] and in assay [18] was more than 100 µM throughout. Also, the TGI in assay [19] is more than 100 µM.

With `CCCCCC1CC=CC(=O)O1` (configuration not stated), the TGI is 25.6 µM in assay [1]; 26.8 µM in assay [2]; 33.7 µM in assay [3]; 9.71 µM in assay [4]; 54.1 µM in assay [5]; 17.8 µM in [6]. The TGI in assay [7] was 29.1 µM; in [8] it was 33.6 µM; in assay [9], 15.2 µM; in [10] it was more than 100 µM; in assay [11], 23.5 µM; in assay [12], 38.2 µM. Further, the TGI in [13] is 24 µM; in assay [15] it was 40.3 µM; in assay [16], 65.8 µM; in assay [17] it was 40.8 µM; in assay [20], more than 100 µM; in assay [18] it was 25.3 µM. Further, in [19], the TGI came out at 31.3 µM.

In the case of `C=C1CCCC2[C@](C)(CC3=C(Cl)C(=O)C=C(OC)C3=O)C(C)CC[C@]12C` (some centres not stated), the TGI in [1] turned out to be 33.2 µM; in assay [2], 12.5 µM; in [3], 11.4 µM; in [4], 3.18 µM; in assay [5] it was 13.9 µM; in assay [6] it was 7.37 µM. The TGI in assay [7] came out at 10.4 µM; in assay [8] it was 19.4 µM; in [9], 6.53 µM; in assay [10], 16.2 µM; in [11], 13.5 µM; in assay [12], 13.7 µM. Moreover, the TGI is 5.77 µM in assay [13]; 6.18 µM in assay [15]; 11.1 µM in assay [16]; 11.6 µM in assay [17]; 6.99 µM in [20]; 12.7 µM in [18]. In [19], this compound returned a TGI of 11.9 µM.

Regarding `c1ccc2c(CN3CCN(Cc4c[nH]c5ccccc45)CC3)c[nH]c2c1`, the TGI turned out to be 58 µM in assay [1]; 29.1 µM in assay [2]; 58.6 µM in assay [3]; 31.3 µM in [4]; 45.9 µM in assay [5]; 36.1 µM in assay [6]. The TGI in assay [7] is 93.9 µM; in assay [8], 25.3 µM; in [9] it was 31.6 µM; in assay [10], 27.8 µM; in assay [11] it was 31.5 µM; in [12], 29.1 µM. Moreover, the TGI amounted to 27.7 µM in assay [13]; 30.2 µM in assay [14]; 36.9 µM in [15]; 36 µM in assay [17]; 29.9 µM in assay [18]; 35.6 µM in [19].

For `CC(=O)C1C(=O)C(=O)N(c2ccccc2)C1=O` (configuration not stated), the TGI in assay [1], in assay [2], in assay [3], in assay [4], in assay [5] and in assay [6] was more than 100 µM in each case. Further, the TGI in assay [7], in assay [8], in [9], in assay [11], in [12] and in [13] was more than 100 µM each time. The TGI in assay [14], in [15], in assay [16], in assay [17], in assay [20] and in assay [18] was more than 100 µM throughout. Moreover, the TGI in assay [19] is more than 100 µM.

`O=Cc1c2n(c3ccccc13)N[C@@](Cc1ccc(O)cc1)(C(=O)O)C2`: the TGI in assay [1], in assay [2], in assay [3], in assay [4], in [5] and in assay [6] was more than 100 µM in each case. The TGI in [7], in assay [9], in assay [10], in [11], in assay [12] and in assay [13] was more than 100 µM throughout. Besides, the TGI in assay [15], in [16], in assay [17], in [20], in assay [18] and in [19] was more than 100 µM throughout.
